Results as given in patent US12187709B2 (Genentech, Inc., priority 2021, dated 2025).

Legend:
c-Cbl (residues 47-435) = c-Cbl (residues 47-435) (Homo sapiens (Human), UniProt P22681); assay: c-Cbl SPR assay; type: binding; conditions: 20° C.
Experimental: (§1) Affinity of binding to Cbl-b and c-Cbl for compounds described herein was assessed by surface plasmon resonance (SPR) according to the following protocol.
(§2) A surface capture range of 1300-1500 RU of protein was used for both isoforms.
(§3) For SPR measurements, 6 concentrations with 2 fold serial dilution were measured with blanks flanking each series for double referencing. […] SPR sensorgrams were recorded in multi-cycle kinetics format, with a contact time of 60 seconds and a flow rate of 40 μl/min, the dissociation time was varied between 120-1200 seconds aiming for 4-5 half-lives of the measured interaction.
(§4) Kinetic and affinity parameters were extracted from the multicycle kinetics data fitting to a 1:1 binding model using the Biacore™ Incyte evaluation software (Cytiva).
(§5) Chaser assay utilize a single cycle kinetics SPR experiment with a contact time of 120 seconds, a flow rate of 50 μl/min and a dissociation time of 450 seconds. Single cycle kinetics titration utilized an initial blank injection and 5 concentrations with 2 fold serial dilution with a maximum concentration of 500 nM, blanked to a preceding 6 point blank single cycle kinetics injection for double referencing.
(§6) The kd is measured independently by determining the percentage unoccupied compound binding site over time by measuring the binding of a chaser compound measured by SPR.
(§7) Chaser binding was measured by a multicycle kinetics SPR experiment using a contact time of 20 seconds, a flow rate of 30 μl/min, and a dissociation time of 120 seconds. […] The % compound bound at a given time was determined by comparison to a single injection of chaser preceding the single cycle kinetics titration defined below. % Compound Bound=(1−(RUT/RUT0))*100
(§8) The % compound bound is plotted against time in seconds and fit to a single exponential, where the exponent represents the kd of the compound-protein complex. The single cycle kinetics experiment of the compound is then fit with a fixed kd determined using the chaser.

[1] = molecular target: Human Cbl-b (residues 40-426) (Homo sapiens (Human), UniProt Q13191); assay: Cbl-b SPR assay; type: binding; conditions: for Fold of selectivity: C-cbl SPR Kd vs Cbl-b SPR Kd; for Kd: SPR, 20° C.
Experimental: as §1, §2, §3, §4, §5, §6, §7, §8

c-Cbl = c-Cbl (Homo sapiens (Human), UniProt P22681); assay: C-Cbl LCK Ub TR-FRET assay (C-cbl Lck HTRF); type: biochemical
Procedure, shortened: (§9)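 Detection reagents added, brief spin, 20 min RT. IC50 fit normalized to no-LCK (low) and DMSO (high) controls.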

Cbl-b = Cbl-b (Homo sapiens (Human), UniProt Q13191); assay: Cbl-b LCK Ub TR-FRET assay (Cbl-b Lck HTRF); type: biochemical; conditions: for IC50: Cbl-b LCK Ub TR-FRET; for fold-selectivity (Cbl-b over C-cbl) / (fold-selectivity) Cbl-b and C-Cbl Selectivity: ratio C-cbl Lck HTRF IC50 / Cbl-b Lck HTRF IC50
Procedure, shortened: as §9

Sequence of c-Cbl (P22681 47-435): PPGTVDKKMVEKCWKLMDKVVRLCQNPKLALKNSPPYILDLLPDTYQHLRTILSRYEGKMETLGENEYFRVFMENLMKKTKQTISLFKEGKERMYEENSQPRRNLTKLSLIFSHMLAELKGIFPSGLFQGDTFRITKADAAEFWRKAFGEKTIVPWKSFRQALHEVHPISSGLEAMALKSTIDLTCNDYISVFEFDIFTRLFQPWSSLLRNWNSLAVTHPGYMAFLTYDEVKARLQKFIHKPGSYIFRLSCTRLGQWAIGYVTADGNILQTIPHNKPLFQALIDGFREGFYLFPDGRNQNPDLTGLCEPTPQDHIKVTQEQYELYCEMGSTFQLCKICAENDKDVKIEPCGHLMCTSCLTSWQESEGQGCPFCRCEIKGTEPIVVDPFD
Sequence of Cbl-b (Q13191 40-426): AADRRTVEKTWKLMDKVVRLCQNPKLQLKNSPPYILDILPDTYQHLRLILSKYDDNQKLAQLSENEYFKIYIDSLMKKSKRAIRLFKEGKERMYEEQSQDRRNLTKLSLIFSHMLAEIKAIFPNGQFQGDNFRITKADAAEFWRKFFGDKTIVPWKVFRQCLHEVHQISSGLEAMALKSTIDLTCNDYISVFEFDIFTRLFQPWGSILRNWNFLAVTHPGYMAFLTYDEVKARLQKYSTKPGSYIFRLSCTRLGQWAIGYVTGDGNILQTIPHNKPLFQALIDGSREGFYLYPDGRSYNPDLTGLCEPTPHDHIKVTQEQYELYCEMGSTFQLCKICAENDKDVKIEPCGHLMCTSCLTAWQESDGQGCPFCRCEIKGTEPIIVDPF
Sequence of Human Cbl-b (residues 40-426) (Q13191 40-426): as above
Sequence of c-Cbl (residues 47-435) (P22681 47-435): as the sequence (P22681 47-435) above

| Compound | Kd (c-Cbl (residues 47-435)) [nM] | Fold of selectivity [1] [×] | Kd [1] [nM] | IC50 (c-Cbl) [nM] | IC50 (Cbl-b) [nM] | fold-selectivity (Cbl-b over C-cbl) (Cbl-b) | IC50 (Cbl-b; Example 121) [nM] | (fold-selectivity) Cbl-b and C-Cbl Selectivity (Cbl-b) [x] |
| --- | --- | --- | --- | --- | --- | --- | --- | --- |
| 2-(3-(3,3-dimethyl-1-(4-methyl-4H-1,2,4-triazol-3-yl)cyclobutyl)phenyl)-6-(((1-methylcyclobutyl)amino)methyl)-4-(trifluoromethyl)-isoindolin-1-one [Compound 39] | 16 | 6.6 | 2.3 | – | – | – | – | – |
| 2-(3-(2-(4-methyl-4H-1,2,4-triazol-3-yl)-6-oxospiro[3.3]heptan-2-yl)phenyl)-6-(((1-methylcyclobutyl)amino)methyl)-4-(trifluoromethyl)isoindolin-1-one [Compound 92] | 24 | 6.4 | 3.4 | – | – | – | – | – |
| CC[C@H](NC1(C)CCC1)c1cc2c(c(C(F)(F)F)c1)CN(c1cccc([C@@H](c3nncn3C)C3COC3)c1)C2=O [Compound 315, 2-(3-((S)-(4-methyl-4H-1,2,4-triazol-3-yl)(oxetan-3-yl)methyl)phenyl)-6-((S)-1-((1-methylcyclobutyl)amino)propyl)-4-(trifluoromethyl)isoindolin-1-one] | – | – | – | 20000 | 6800 | 2.0x | – | – |
| Cn1cnnc1[C@@H](CC1CCOCC1)c1cccc(N2Cc3c(cc(CNC4(C)CCC4)cc3C(F)(F)F)C2=O)c1 [Compound 253, (S)-2-(3-(1-(4-methyl-4H-1,2,4-triazol-3-yl)-2-(tetrahydro-2H-pyran-4-yl)ethyl)phenyl)-6-(((1-methylcyclobutyl)amino)methyl)-4-(trifluoromethyl)isoindolin-1-one] | – | – | – | 140 | 120 | 1.1x | – | – |
| Cn1cnnc1[C@H](c1cccc(N2Cc3c(cc(CNC4(C)CCC4)cc3C(F)(F)F)C2=O)c1)N1CCC1 (single isomer, unassigned) [Compound 32] | – | – | – | 20000 | 3800 | (5.3x) | – | – |
| CC(C)[C@H]1CN(C)CCN1Cc1cc2c(c(C(F)(F)F)c1)CN(c1cccc([C@@H](c3nncn3C)C3COC3)c1)C2=O (single isomer, unassigned) [Compound 10] | – | – | – | 24 | 12 | (2.0x) | – | – |
| Cn1cnnc1[C@@H](CC1CCCC1)c1cccc(N2Cc3c(cc(CNC4(C)CCC4)cc3C(F)(F)F)C2=O)c1 [Compound 248, (S)-2-(3-(2-cyclopentyl-1-(4-methyl-4H-1,2,4-triazol-3-yl)ethyl)phenyl)-6-(((1-methylcyclobutyl)amino)methyl)-4-(trifluoromethyl)isoindolin-1-one] | – | – | – | 2100 | 1400 | 1.6x | – | – |
| CO[C@H]1C[C@@](c2cc(OC3CCCC3)nc(N3Cc4c(cc(CNC5(C)CCC5)cc4C(F)(F)F)C3=O)c2)(c2nncn2C)C1 [Compound 78, 2-(6-(cyclopentyloxy)-4-((1S,3S)-3-methoxy-1-(4-methyl-4H-1,2,4-triazol-3-yl)cyclobutyl)pyriidn-2-yl)-6-(((1-methylcyclobutyl)amino)methyl)-4-(trifluoromethyl)isoindolin-1-one] | – | – | – | 70 | 14 | (5.0x) | – | – |
| Cn1cnnc1[C@@](O)(c1ccccc1)c1cccc(N2Cc3c(cc(CNC4(C)CCC4)cc3C(F)(F)F)C2=O)c1 (single isomer, unassigned) [Compound 155] | – | – | – | 10000 | 10000 | 2.0x | – | – |
| Cn1cnnc1[C@H](c1cccc(N2Cc3c(cc(CNC4(C)CCC4)cc3C(F)F)C2=O)c1)C1COC1 [Compound 304, (S)-4-(difluoromethyl)-2-(3-((4-methyl-4H-1,2,4-triazol-3-yl)(oxetan-3-yl)methyl)phenyl)-6-(((1-methylcyclobutyl)amino)methyl)isoindolin-1-one] | – | – | – | 20000 | 7800 | 2.6x | – | – |
| Cn1cnnc1[C@@H](C[C@@H]1CCOC1)c1cccc(N2Cc3c(cc(CNC4(C)CCC4)cc3C(F)(F)F)C2=O)c1 [Compound 276, 2-(3-((S)-1-(4-methyl-4H-1,2,4-triazol-3-yl)-2-((R)-tetrahydrofuran-3-yl)ethyl)phenyl)-6-(((1-methylcyclobutyl)amino)methyl)-4-(trifluoromethyl)isoindolin-1-one] | – | – | – | 20000 | ≥ 20000 | 1.0x | – | – |
| Cn1cnnc1[C@@](O)(c1ccccc1)c1cccc(N2Cc3c(Cl)cc(CNC4(C)CCC4)cc3C2=O)c1 (single isomer, unassigned) [Compound 410] | – | – | – | 15000 | – | – | 4500 | 3.4 |
| Cn1cnnc1[C@H](OC1CCC1)c1cccc(N2Cc3c(cc(CNC4(C)CCC4)cc3C(F)(F)F)C2=O)c1 [Compound 47, (R)-2-(3-(cyclobutoxy(4-methyl-4H-1,2,4-triazol-3-yl)methyl)phenyl)-6-(((1-methylcyclobutyl)amino)methyl)-4-(trifluoromethyl)isoindolin-1-one] | – | – | – | 2300 | 1200 | (1.9x) | – | – |
| Cn1cnnc1[C@H](CC1(C)COC1)c1cccc(N2Cc3c(cc(CNC4(C)CCC4)cc3C(F)(F)F)C2=O)c1 [Compound 254, (R)-2-(3-(1-(4-methyl-4H-1,2,4-triazol-3-yl)-2-(3-methyloxetan-3-yl)ethyl)phenyl)-6-(((1-methylcyclobutyl)amino)methyl)-4-(trifluoromethyl)isoindolin-1-one] | – | – | – | 20000 | ≥ 20000 | 1.0x | – | – |
| CCOC1CC([C@@H](c2cccc(N3Cc4c(cc(CNC5(C)CCC5)cc4C(F)(F)F)C3=O)c2)c2nncn2C)C1 (single isomer, unassigned) [Compound 266] | – | – | – | ≥ 20000 | 6700 | 3.0x | – | – |
| Cn1cnnc1[C@H](c1cccc(N2Cc3c(cc(CNC4(C)CCC4)cc3C(F)(F)F)C2=O)c1)C1CCCCC1 (single isomer, unassigned) [Compound 251] | – | – | – | 890 | 880 | 1.0x | – | – |
| CCOc1cc([C@]2(c3nncn3C)C[C@H](OC)C2)cc(N2Cc3c(cc(CNC4(C)CCC4)cc3C(F)(F)F)C2=O)n1 [Compound 77, 2-(6-ethoxy-4-((1R,3R)-3-methoxy-1-(4-methyl-4H-1,2,4-triazol-3-yl)cyclobutyl)pyridin-2-yl)-6-(((1-methylcyclobutyl)amino)methyl)-4-(trifluoromethyl)isoindolin-1-one] | – | – | – | 8.2 | 8.2 | (1.0x) | – | – |
| Cn1cnnc1[C@@H](CC1COC1)c1cccc(N2Cc3c(cc(CNC4(C)CCC4)cc3C(F)(F)F)C2=O)c1 [Compound 244, (S)-2-(3-(1-(4-methyl-4H-1,2,4-triazol-3-yl)-2-(oxetan-3-yl)ethyl)phenyl)-6-(((1-methylcyclobutyl)amino)methyl)-4-(trifluoromethyl)isoindolin-1-one] | – | – | – | 3600 | 3100 | 1.2x | – | – |
| Cn1cnnc1[C@H](c1cccc(N2Cc3c(cc(CNC4(C)CCC4)cc3C(F)(F)F)C2=O)c1)C1CC(OC(F)(F)F)C1 (single isomer, unassigned) [Compound 396] | – | – | – | 170 | 100 | 1.7x | – | – |
| Cn1ccnc1[C@H](c1cccc(N2Cc3c(cc(CNC4(C)CCC4)cc3C(F)(F)F)C2=O)c1)C1COC1 (single isomer, unassigned) [Compound 353] | – | – | – | 20000 | 9600 | 2.1x | – | – |
| Cn1cnnc1[C@@H](c1cccc(N2Cc3c(cc(CN[C@@H]4C[C@@H]5C[C@@H]5C4)cc3C(F)(F)F)C2=O)c1)C1COC1 (single isomer, unassigned) [Compound 469] | – | – | – | 4.5 | – | – | 5.3 | 0.85 |
| Cn1cnnc1[C@@]1(c2cccc(N3Cc4c(cc(CNC5(C)CCC5)cc4C(F)(F)F)C3=O)c2)CCC(F)(F)C1 (single isomer, unassigned) [Compound 106] | – | – | – | 81 | 23 | 3.5x | – | – |
| C[C@H](NC1CCC1)c1cc2c(c(C(F)(F)F)c1)CN(c1cccc(C3(c4nncn4C)CC(F)(F)C3)c1)C2=O (single isomer, unassigned) [Compound 37] | – | – | – | 9.9 | 6.6 | (1.5x) | – | – |
| Cn1cnnc1[C@@H](c1cccc(N2Cc3c(cc(CNCC4(C)CC4)cc3C(F)(F)F)C2=O)c1)C1COC1 (single isomer, unassigned) [Compound 465] | – | – | – | 12 | – | – | 6.6 | 1.8 |
